Test results taken from US7247748B2, “Amide compounds and methods of using the same” (SmithKline Corporation, priority 2002, dated 2007).

Assays:
[1] = biological target: T1, LXRα ligand binding domain (Homo sapiens, UniProt Q13133); experiment: Ligand Sensing Assay for LXRα agonist activity; format: biochemical; details: 1 μM; over a background reading of 10000 fluorescence units
T1 construct: His tag; made in house; host or cells: E. coli BL21(DE3) by analogy with Test Method 1 (inferred)
T1 sequence (Q13133 183-447): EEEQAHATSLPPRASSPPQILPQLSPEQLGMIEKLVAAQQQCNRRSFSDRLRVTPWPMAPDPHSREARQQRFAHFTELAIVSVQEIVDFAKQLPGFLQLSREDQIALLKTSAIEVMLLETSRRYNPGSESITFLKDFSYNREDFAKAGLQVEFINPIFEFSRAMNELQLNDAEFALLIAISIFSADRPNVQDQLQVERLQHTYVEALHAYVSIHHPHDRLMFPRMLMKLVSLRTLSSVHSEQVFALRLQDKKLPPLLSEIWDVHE
T1 sequence (Q15788 676-700 partner): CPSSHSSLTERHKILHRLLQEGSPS
Procedure: (§1) Test Method 1: Ligand Sensing Assay (LiSA) for LXRβ Agonist Activity
(§2) This assay measures the recruitment of a peptide derived from the coactivator protein, SRC1, to the agonist-bound LXR[…]. Peptides derived from other nuclear receptor cofactors may be similarly prepared and assayed.
The biotinylated protein was incubated for 20–25 minutes at a concentration of 5 nM in assay buffer (50 mM NaF, 50 mM MOPS-pH 7.5, 0.1 mg/ml FAF-BSA, 0.05 mM CHAPS, 10 mM DTT) with equimolar amounts of streptavidin-AlloPhycoCyanin (APC, Molecular Probes). […]
49 uL of the protein/peptide mixture was added to each well of an assay plate containing 1 ul of test compound serial diluted in 100% DMSO. […] The plates were incubated at room temp 2-hours and then counted on a Wallac Victor V fluorescent plate reader. […]
The assay for LXRα was run according to the procedures of Test Method 1, above using his-tagged LXRα ligand binding domain (amino acids 183–447 of Genbank accession number U22662, with the 14th amino acid corrected to A from R). In this assay 1 μM 24(S),25-epoxycholesterol gave a reading of 20000 fluorescence units over a background reading of 10000 fluorescence units.

[2] = biological target: T2, human LXRβ ligand binding domain (Homo sapiens, UniProt P55055); experiment: Ligand Sensing Assay (LiSA) for LXRβ agonist activity (SRC1 peptide recruitment); format: biochemical; details: 1 μM; over a background reading of 10000 fluorescence units
T2 construct: made in house; host or cells: E. coli BL21(DE3), vector pRSETa
T2 sequence (P55055 184-460 limits assumed): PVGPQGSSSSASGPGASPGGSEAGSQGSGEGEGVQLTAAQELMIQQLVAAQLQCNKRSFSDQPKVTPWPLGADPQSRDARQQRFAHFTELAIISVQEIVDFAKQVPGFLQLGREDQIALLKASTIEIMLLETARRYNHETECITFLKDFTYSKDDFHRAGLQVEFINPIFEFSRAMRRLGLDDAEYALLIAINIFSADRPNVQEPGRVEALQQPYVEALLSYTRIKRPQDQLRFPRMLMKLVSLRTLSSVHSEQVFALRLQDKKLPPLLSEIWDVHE
T2 sequence (Q15788 676-700 partner limits assumed): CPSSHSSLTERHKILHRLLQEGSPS
Text: as §1, §2
To generate the human LXRβ ligand binding domain suitable for LiSA, a modified polyhistidine tag (MKKGHHHHHHG) (SEQ ID No. 1) was fused in frame to the human LXRβ ligand binding domain (amino acids 185–461 of Genbank accession number U07132) and subcloned into the expression vector pRSETa (Invitrogen) under the control of an IPTG inducible T7 promoter. The human LXRβ ligand binding domain was expressed in E. coli strain BL21(DE3). Ten-liter fermentation batches were grown in Rich PO4 media with 0.1 mg/mL Ampicillin at 25° C. for 12 hours, cooled to 9° C. and held at that temperature for 36 hours to a density of OD600=14. […]
Typically 25–50 g of cell paste is resuspended in 250–500 mL TBS, pH 8.0 (25 mM Tris, 150 mM NaCl). […] After washing to baseline absorbance with equilibration buffer, the column is washed with approximately one column volume of TBS pH […] containing 95 mM imidazole. […] After washing to baseline absorbance with the dilution buffer the protein is eluted with a gradient from 50–500 mM NaCl. […]

**Q.** `C[C@H](CC[C@@H]1OC1(C)C)[C@H]1CC[C@H]2[C@@H]3CC=C4C[C@@H](O)CC[C@]4(C)[C@H]3CC[C@]12C` [24(S),25-epoxycholesterol] was tested. Which reading [1] did it give?
**A.** Its reading is 20000 fluorescence units.

**Q.** What about the reading [2] of the same compound?
**A.** Its reading is 20000 fluorescence units.
